Source: US20240425441A9, “MODULATORS OF LIPOXYGENASE AND CYCLOOXYGENASE ENZYME ACTIVITY” (Université de Moncton, priority 2016, published 2024)
pIC50: −log10 of the molar value. Read-outs that look alike come from different tables or passages of the source. Blank lines part the entries; values can stand above or below the molecule they belong to.

Legend:
Assay type in all cases: cell-based
[1] = biological target: T1, 5-lipoxygenase (Homo sapiens (Human), UniProt P09917); test: Stimulation of isolated PMN (neutrophils) for 5-LO products; details: ranges indicate confidence interval, read-out: PMN dose-response
T1 sequence (P09917 whole entry): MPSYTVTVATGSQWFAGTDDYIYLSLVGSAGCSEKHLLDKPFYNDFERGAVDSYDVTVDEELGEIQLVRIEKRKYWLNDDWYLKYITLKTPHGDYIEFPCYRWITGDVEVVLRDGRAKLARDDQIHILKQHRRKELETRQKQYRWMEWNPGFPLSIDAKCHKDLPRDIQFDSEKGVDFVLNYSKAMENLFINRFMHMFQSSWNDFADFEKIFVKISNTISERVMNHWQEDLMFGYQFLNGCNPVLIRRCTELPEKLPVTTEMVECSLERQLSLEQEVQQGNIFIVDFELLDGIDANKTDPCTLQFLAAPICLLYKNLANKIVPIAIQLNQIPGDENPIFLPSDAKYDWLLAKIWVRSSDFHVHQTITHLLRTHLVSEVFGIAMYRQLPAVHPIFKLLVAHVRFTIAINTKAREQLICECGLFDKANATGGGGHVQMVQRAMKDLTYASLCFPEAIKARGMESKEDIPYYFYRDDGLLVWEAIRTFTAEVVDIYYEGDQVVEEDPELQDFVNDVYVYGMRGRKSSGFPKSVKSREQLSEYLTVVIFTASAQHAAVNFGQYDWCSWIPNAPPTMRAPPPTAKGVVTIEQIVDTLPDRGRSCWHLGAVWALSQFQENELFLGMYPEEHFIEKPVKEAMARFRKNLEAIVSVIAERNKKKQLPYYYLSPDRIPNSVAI
Method: Briefly, blood was centrifuged at 300×g for 5 min at room temperature, plasma was collected and erythrocytes were removed after dextran sedimentation.
Isolated PMN (1×10^7 cells/mL) resuspended in Hank's balanced salt solution (HBSS, Lonza, Walkerville, MD) containing 1.6 mM CaCl2) were pre-incubated with test compounds for 5 min at 37° C. in the presence of 1 U/mL of adenosine deaminase. […] Reactions were stopped with the addition of 0.5 volume of cold MeOH:CH3CN (1:1) and 50 ng of PGB2 as internal standard, and samples were stored at −20° C. overnight for protein denaturation. […] Total 5-LO products quantified represents the sum of LTB4, its trans isomers, 20-COOH— and 20-OH-LTB4 and 5-hydroxyeicosatetraenoic acid.

[2] = biological target: T1, 5-lipoxygenase; test: Stimulation of HEK293 cells stably transfected with 5-LO and FLAP; total 5-LO products by HPLC; details: HEK293 cells expressing 5-LO and FLAP; ranges indicate confidence interval; read-out: HEK Dose-response
Method: HEK293 cells were detached by trypsinization and re-suspended in Hank's balanced salt solution containing 1.6 mM CaCl2). Cells (1×10^6 cells/mL) were preincubated at 37° C. with the test compounds or their diluent for 5 minutes and were then stimulated at 37° C. with 10 μM ionophore A23187 and 10 μM AA for 15 min. Stimulations were stopped by adding 0.5 volumes of a methanol:acetonitrile (1:1) solution containing 100 ng/mL each of PGB2 and 19-OH-PGB2 as internal standards, and samples were then kept at −20° C. overnight for protein denaturation. […] Total 5-LO products quantified represents the sum of LTB4, its trans isomers and 5-hydroxyeicosatetraenoic acid.

[3] = biological target: T1, 5-lipoxygenase; test: Ex vivo whole blood stimulation with zymosan; total 5-LO products; details: zymosan-stimulated whole blood; read-out: Whole blood dose-response
Method: Each compound or its diluent was added to heparinized blood obtained from healthy donors (1 mL) at the indicated concentration and incubated for 10 min at 37° C. in a water bath. Following incubations, 125 μL of 40 mg/mL opsonised zymosan was added to each sample, gently vortexed and incubated for 30 min at 37° C. Samples were then centrifuged for 10 min at 960×g at 4° C. Plasma, 350 μL, was removed and added to 1.2 ml of methanol:acetonitrile (1:1) and 50 ng of PGB2 as internal standard. Samples were left overnight at −20° C. for protein denaturation. […] Total 5-LO products quantified represents the sum of LTB4, its trans isomers, 20-COOH— and 20-OH-LTB4 and 5-hydroxyeicosatetraenoic acid.

[4] = biological target: COX-1 (Homo sapiens (Human), UniProt P23219); test: COX-1 inhibitory activity in human platelets; details: read-out: Percent inhibition at 1 μM
COX-1, sequence (P23219 24-599): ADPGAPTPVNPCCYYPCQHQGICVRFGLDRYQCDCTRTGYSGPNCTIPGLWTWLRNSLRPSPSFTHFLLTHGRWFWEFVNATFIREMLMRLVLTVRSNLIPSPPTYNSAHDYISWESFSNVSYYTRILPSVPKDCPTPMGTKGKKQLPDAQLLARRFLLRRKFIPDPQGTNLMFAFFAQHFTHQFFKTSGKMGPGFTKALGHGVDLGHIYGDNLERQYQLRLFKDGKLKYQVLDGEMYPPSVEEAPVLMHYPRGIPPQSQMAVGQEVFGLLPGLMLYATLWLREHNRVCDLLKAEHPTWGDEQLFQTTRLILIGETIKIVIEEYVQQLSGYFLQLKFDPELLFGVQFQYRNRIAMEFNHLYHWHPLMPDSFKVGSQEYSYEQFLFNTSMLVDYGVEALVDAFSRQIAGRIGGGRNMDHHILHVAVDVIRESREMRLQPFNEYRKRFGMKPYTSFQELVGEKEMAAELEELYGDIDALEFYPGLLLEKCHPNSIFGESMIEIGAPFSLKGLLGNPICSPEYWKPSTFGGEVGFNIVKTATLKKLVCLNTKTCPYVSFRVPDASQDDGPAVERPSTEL

[5] = biological target: COX-2 (Homo sapiens (Human), UniProt P35354); test: COX-2 activity, products from LPS-primed human neutrophils; details: 100% no inhibition, 0% complete inhibition
COX-2, sequence (P35354 18-604): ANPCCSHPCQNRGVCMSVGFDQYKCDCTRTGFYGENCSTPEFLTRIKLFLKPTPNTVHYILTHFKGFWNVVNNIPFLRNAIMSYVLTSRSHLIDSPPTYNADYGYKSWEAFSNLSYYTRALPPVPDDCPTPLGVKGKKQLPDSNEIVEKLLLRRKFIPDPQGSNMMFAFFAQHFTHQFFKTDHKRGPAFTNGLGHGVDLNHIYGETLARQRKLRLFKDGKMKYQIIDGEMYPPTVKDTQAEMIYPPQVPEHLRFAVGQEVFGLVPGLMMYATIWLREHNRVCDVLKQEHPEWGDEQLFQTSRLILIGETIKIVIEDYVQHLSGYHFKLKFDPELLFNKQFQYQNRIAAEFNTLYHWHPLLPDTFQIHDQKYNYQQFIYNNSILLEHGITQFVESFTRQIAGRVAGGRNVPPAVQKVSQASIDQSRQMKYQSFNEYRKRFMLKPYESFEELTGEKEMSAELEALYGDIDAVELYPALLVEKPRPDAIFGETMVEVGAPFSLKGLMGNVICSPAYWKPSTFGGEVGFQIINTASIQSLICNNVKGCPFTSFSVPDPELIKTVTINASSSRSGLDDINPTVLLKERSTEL

[6] = read-out: % of control COX-2 activity, n = 1
[7] = read-out: % of control COX-2 activity, n = 2

SMILES: O=C(C=Cc1ccc(O)c(O)c1)OCC=Cc1ccccc1 (stereo in doubt) [Compound 4, (E)-(Z)-3-phenylallyl 3-(3,4-dihydroxyphenyl)acrylate]
pIC50 [1]: 6.12

SMILES: O=C(/C=C/c1ccc(O)c(O)c1)OCCc1ccccc1 [CAPE, caffeic acid phenethyl ester, reference compound]
pIC50 [2]: 5.92 to 6.19 | pIC50 [3]: 5.47 | pIC50 [1]: 5.96 to 6.08

SMILES: O=C(CCc1ccc(O)c(O)c1)OCCCCc1ccccc1 [Compound 1, 4-phenylbutyl 3-(3,4-dihydroxyphenyl)propanoate]
pIC50 [1]: 6.06

SMILES: O=C(CCc1ccc(O)c(O)c1)OCCCCCCc1ccccc1 [Compound 3, 6-phenylhexyl 3-(3,4-dihydroxyphenyl)propanoate]
pIC50 [3]: 5.62 | pIC50 [1]: 6.29

SMILES: C=C(C)CCOC(=O)/C=C/c1ccc(O)c(O)c1 [Compound 17, (E)-3-methylbut-3-en-1-yl 3-(3,4-dihydroxyphenyl)acrylate]
pIC50 [1]: 6.07

SMILES: COc1ccc(CCOC(=O)/C=C/c2ccc(O)c(O)c2)cc1 [Compound 22, (E)-4-methoxyphenethyl 3-(3,4-dihydroxyphenyl)acrylate]
inhibition at 1 µM [4]: 39.6%

SMILES: O=C(/C=C/c1ccc(O)c(O)c1)OCCCc1ccccc1 [Compound 25, (E)-3-phenylpropyl 3-(3,4-dihydroxyphenyl)acrylate]
remaining activity at 1 µM [5, 6]: 34.9% | remaining activity at 1 µM [5, 7]: 81.3% | remaining activity at 1 µM ([5]; read-out: Avg % of control): 58.1% | pIC50 [1]: 6.09 to 6.23

SMILES: O=C(/C=C/c1ccc(O)c(O)c1)OCC(c1ccccc1)c1ccccc1 [Compound 27, (E)-2,2-diphenylethyl 3-(3,4-dihydroxyphenyl)acrylate]
pIC50 [1]: 6.14

SMILES: O=C(Cc1ccc(O)c(O)c1)OCCCc1ccccc1 [Compound 35, 3-phenylpropyl 2-(3,4-dihydroxyphenyl)acetate]
pIC50 [1]: 6.10

SMILES: O=C(OCCc1ccccc1)c1ccc(O)c(O)c1 [Compound 36, phenethyl 3,4-dihydroxybenzoate]
inhibition at 1 µM [4]: < 20%

SMILES: O=C(/C=C/c1ccc(O)c(O)c1)OCCCCCc1ccccc1 [Compound 40, (E)-5-phenylpentyl 3-(3,4-dihydroxyphenyl)acrylate]
remaining activity at 1 µM [5, 6]: 37.8% | remaining activity at 1 µM [5, 7]: 86.4% | remaining activity at 1 µM ([5]; read-out: Avg % of control): 62.1% | pIC50 [1]: 6.28

SMILES: O=C(/C=C/c1ccc(O)c(O)c1)NCCCCc1ccccc1 [Compound 56, (E)-3-(3,4-dihydroxyphenyl)-N-(4-phenylbutyl)acrylamide]
pIC50 [1]: 6.04

SMILES: O=C(/C=C/c1ccc(O)c(O)c1)CCc1ccccc1 [Compound 59, (E)-1-(3,4-dihydroxyphenyl)-5-phenylpent-1-en-3-one]
pIC50 [1]: 6.08

Next, values leading:

pIC50 [3]: 5.55 | pIC50 [1]: 6.07
SMILES: O=C(CCc1ccc(O)c(O)c1)OCCCCCc1ccccc1 [Compound 2, 5-phenylpentyl 3-(3,4-dihydroxyphenyl)propanoate]

pIC50 [1]: 6.46
SMILES: COc1cc(/C=C/C(=O)OCCCc2ccccc2)cc(OC)c1O [Compound 6, (E)-3-phenylpropyl 3-(4-hydroxy-3,5-dimethoxyphenyl)acrylate]

inhibition at 1 µM [4]: 37.2%
SMILES: O=C(/C=C/c1ccc(O)c(O)c1)OCCc1ccc(F)cc1 [Compound 20, (E)-4-fluorophenethyl 3-(3,4-dihydroxyphenyl)acrylate]

inhibition at 1 µM [4]: 44.6%
SMILES: Cc1ccc(CCOC(=O)/C=C/c2ccc(O)c(O)c2)cc1 [Compound 21, (E)-4-methylphenethyl 3-(3,4-dihydroxyphenyl)acrylate]

pIC50 [1]: 5.99
SMILES: O=C(/C=C/c1ccc(O)c(O)c1)OC/C=C/c1ccccc1 [Compound 31, (E)-cinnamyl 3-(3,4-dihydroxyphenyl)acrylate]

remaining activity at 1 µM [5, 6]: 34.3% | remaining activity at 1 µM [5, 7]: 69% | remaining activity at 1 µM ([5]; read-out: Avg % of control): 51.6% | inhibition at 1 µM [4]: 42% | pIC50 [1]: 6.00
SMILES: O=C(CCc1ccc(O)c(O)c1)OCCc1ccccc1 [Compound 32, phenethyl 3-(3,4-dihydroxyphenyl)propanoate]

remaining activity at 1 µM [5, 6]: 7.6% | remaining activity at 1 µM [5, 7]: 45.3% | remaining activity at 1 µM ([5]; read-out: Avg % of control): 26.4% | pIC50 [1]: 6.05
SMILES: O=C(CCc1ccc(O)c(O)c1)OCCCc1ccccc1 [Compound 33, 3-phenylpropyl 3-(3,4-dihydroxyphenyl)propanoate]

inhibition at 1 µM [4]: < 20%
SMILES: O=C(Cc1ccc(O)c(O)c1)OCCc1ccccc1 [Compound 34, phenethyl 2-(3,4-dihydroxyphenyl)acetate]

pIC50 [3]: 5.55 | pIC50 [1]: 6.10
SMILES: O=C(OCCc1ccccc1)c1cc(O)c(O)c(O)c1 [Compound 38, phenethyl 3,4,5-trihydroxybenzoate]

remaining activity at 1 µM [5, 6]: 62.9% | remaining activity at 1 µM [5, 7]: 90.2% | remaining activity at 1 µM ([5]; read-out: Avg % of control): 76.6% | pIC50 [1]: 6.22
SMILES: O=C(/C=C/c1ccc(O)c(O)c1)OCCCCc1ccccc1 [Compound 39, (E)-4-phenylbutyl 3-(3,4-dihydroxyphenyl)acrylate]

pIC50 [1]: 6.08
SMILES: O=C(/C=C/c1ccc(O)c(O)c1)OCCCCCCc1ccccc1 [Compound 41, (E)-6-phenylhexyl 3-(3,4-dihydroxyphenyl)acrylate]

pIC50 [1]: 6.52
SMILES: COc1cc(/C=C/C(=O)OCCc2ccccc2)cc(OC)c1O [Compound 45, (E)-phenethyl 3-(4-hydroxy-3,5-dimethoxyphenyl)acrylate]

remaining activity at 1 µM [5, 6]: 103% | remaining activity at 1 µM [5, 7]: 101% | remaining activity at 1 µM ([5]; read-out: Avg % of control): 102% | pIC50 [1]: 5.80
SMILES: O=C(/C=C/c1ccc(O)c(O)c1)NCCCc1ccccc1 [Compound 55, (E)-3-(3,4-dihydroxyphenyl)-N-(3-phenylpropyl)acrylamide]
